Values after ≈ are worked out from the molar mass of the structure shown. Positions of bridges follow the written chain, without caps; N, C: chain ends. Residues, ends and D or L forms follow the SMILES beside them.
Assays:
S. aureus ATCC 25923 [1] = experiment: MIC and MBC determination (CLSI broth microdilution); assay type: cell-based; details: Staphylococcus aureus; for MIC: ATCC25923, 1 × 10^5 CFU/mL, 16–18 h, 37 °C; for MBC: ATCC25923, lowest concentration giving 99.9% died bacteria
Experimental: (§1) Minimal Inhibitory Concentration (MIC), Minimal Bactericidal Concentration (MBC) and Mutant Prevention Concentration (MPC).
(§2) The MIC and MBC values of NZX against the test S. aureus strain were determined according to Clinical Laboratory Standards Institute (Watts et al. [2013]). Briefly, a volume of 10 μL diluted NZX with final concentration (1.25–1280 μg/mL) and 90 μL of mid-log phase S. aureus cells (1 × 10^5 CFU/mL) were added into a 96-well plate and co-incubated for 16–18 h at 37 °C. MIC value was defined as the lowest concentration of NZX at which no visible bacterial growth was observed. In addition, the bacteria suspensions were plated on Mueller–Hinton agar (MHA) medium to count, and the lowest concentration of NZX that results in 99.9% of died bacteria was the MBC value.

S. aureus E48 [2] = experiment: as above; assay type: cell-based; details: Staphylococcus aureus; for MIC: 1 × 10^5 CFU/mL, 16–18 h, 37 °C; for MBC: lowest concentration giving 99.9% died bacteria
Experimental: as §1, §2

S. aureus ATCC 43300 [3] = experiment: as above; assay type: cell-based; details: Staphylococcus aureus; for MIC: ATCC43300, 1 × 10^5 CFU/mL, 16–18 h, 37 °C; for MBC: ATCC43300, lowest concentration giving 99.9% died bacteria
Experimental: as §1, §2

S. aureus ATCC 43300 [4] = experiment: Cell membrane permeability, PI staining by flow cytometry; assay type: cell-based, Staphylococcus aureus
Experimental: Flow cytometry was used for the analysis of the effects of NZX on the penetration rate of the S. aureus cell membrane (Yang et al. [2019]). The S. aureus cells in mid-log phase were adjusted to 1 × 10^8 CFU/mL and the bacteria suspensions were treated with 1 × , 2 × and 4 × MIC of NZX for 2 h at 37 °C. In addition, the cell suspensions were incubated with 2 × MIC of NZX for 0 h, 0.5 h, 1 h and 2 h, respectively. After incubation, the cells were centrifuged at 4000 rpm at 4 °C for 5 min, washed twice with sterile PBS, and pellets were resuspended in 1 mL of PBS. Next, cells were stained with 50 µg/mL propidium iodide (PI) for 30 min in the dark at room temperature, and the proportion of cells with PI positive cells to the total cells were analyzed by flow-cytometry (BD, USA). Lincomycin and ceftiofur were used as positive controls and PBS as negative control. Three replicates for each treatment were conducted.

S. aureus ATCC 25923 [5] = experiment: In vitro dose-killing curves (24 h); assay type: cell-based, Staphylococcus aureus; details: for EC50: Staphylococcus aureus, ATCC25923, 50% reduction in Log10 CFU at 24 h between minimum and maximum; for Cs: concentration causing no apparent growth in Log10 CFU at 24 h vs initial inoculum
Experimental: (§3) The in vitro dose-killing curves of NZX against the test S. aureus strains were conducted as previous described (Brinch et al. [2010]), with some modification. The S. aureus cells in mid-log phage were diluted. Then, the killing curves of NZX against S. aureus strains were carried out in the 48-well plate. Specifically, a volume of 50 μL NZX (0.6–150 μM) was mixed with 450 μL of the above diluted bacterial suspension (5 × 10^5 CFU/mL), and the mixtures were incubated in the Micro Oscillator for 24 h (600 rpm, 37 °C). Subsequently, the bacteria suspensions were plated on MHA medium to count. Lincomycin and ceftiofur were set as antibiotic controls, respectively. PBS was negative control. Results were expressed as the average of three independent experiments data.

S. aureus E48 [6] = experiment: In vitro dose-killing curves (24 h); assay type: cell-based, Staphylococcus aureus; details: for EC50: Staphylococcus aureus, 50% reduction in Log10 CFU at 24 h between minimum and maximum; for Cs: concentration causing no apparent growth in Log10 CFU at 24 h vs initial inoculum
Experimental: as §3

S. aureus ATCC 43300 [7] = experiment: Post antibiotic effect (PAE); assay type: cell-based, Staphylococcus aureus; details: 2 h exposure at 1 × to 8 × MIC, 1 × 10^8 CFU/mL, triplicate
Experimental: PAE was performed based on the method of Zhang et al. (Zhang et al. [2014]). S. aureus E48, S. aureus ATCC 25923 and S. aureus ATCC 43300 were cultured at 37 °C in MHB medium to the log-phase. Then, the diluted cells (1 × 10^8 CFU/mL) were exposed to NZX with final concentration of 1 × , 2 × , 4 × and 8 × MIC in the 48-well plates for 2 h at 37 °C. After incubation, NZX were removed by diluting 1:1000 with MHB medium. Viable counts were determined immediately after drug reconstruction and at 1–2 h interval for at least 10 h. PAE determination was calculated as PAE (h) = T-C, where T is the time (h) that required to increase by tenfold for the drug-treated viable count from the moment of drug reconstruction and C is the time (h) required to increase by tenfold for cell density without treatment. The experiments were conducted in triplication.

S. aureus ATCC 43300 [8] = experiment: Mutant prevention concentration (MPC) on MHA plates; assay type: cell-based, Staphylococcus aureus; details: 1 × 10^10 CFU/mL, 37 °C, 72 h, each concentration three times
Experimental: as §1
MPCs of NZX against the test S. aureus strain were determined as described by Plowgian et al., with some modification (Plowgian et al. [2019]). In brief, S. aureus cells were cultured to mid-log phase in Mueller–Hinton broth (MHB) medium. Then the suspensions were centrifuged (4000 rpm for 5 min) and the pellets were collected and diluted to a final concentration of 1 × 10^10 CFU/mL with MHB. […] All plates were incubated at 37 ^∘C for 72 h and the concentration corresponding to the plate with no bacterial growth was regarded as the provisional mutant prevention concentration (MPCpr). […] Lincomycin and ceftiofur were set as antibiotic controls, respectively. Each concentration was conducted three times.

[9] = 2 × MIC, range over 0, 0.5, 1 and 2 h
[10] = 2 h, range over 1 × MIC, 2 × MIC and 4 × MIC

| SMILES | MIC (S. aureus ATCC 25923 [1]) [µM] | MBC (S. aureus ATCC 25923 [1]) [µM] | MIC (S. aureus E48 [2]) [µM] | MBC (S. aureus E48 [2]) [µM] | MIC (S. aureus ATCC 43300 [3]) [µM] | MBC (S. aureus ATCC 43300 [3]) [µM] | percentage of PI-positive cells (S. aureus ATCC 43300 [4]; [9]) | percentage of PI-positive cells (S. aureus ATCC 43300 [4]; [10]) | EC50 (S. aureus ATCC 25923 [5]) [µM] | Cs (S. aureus ATCC 25923 [5]) [µM] | EC50 (S. aureus E48 [6]) [µM] | Cs (S. aureus E48 [6]) [µM] | mean PAE range (S. aureus ATCC 43300 [7]) [h] | MPC (S. aureus ATCC 43300 [8]) [µM] |
| --- | --- | --- | --- | --- | --- | --- | --- | --- | --- | --- | --- | --- | --- | --- |
| CO/N=C(\C(=O)N[C@@H]1C(=O)N2C(C(=O)O)=C(CSC(=O)c3ccco3)CS[C@H]12)c1csc(N)n1 [Ceftiofur] | 1.83 (≈ 0.958 µg/mL) | 3.67 (≈ 1.92 µg/mL) | 1.83 (≈ 0.958 µg/mL) | 3.67 (≈ 1.92 µg/mL) | 1.83 (≈ 0.958 µg/mL) | 1.83 (≈ 0.958 µg/mL) | 1.82–24.20% | 15.5–15.8% | 0.71 | 0.77 | 1.18 | 1.11 | 0.82 to 1.76 | 7.32 |
| CCC[C@@H]1C[C@@H](C(=O)N[C@@H]([C@H]2O[C@H](SC)[C@H](O)[C@@H](O)[C@H]2O)[C@@H](C)O)N(C)C1 [Lincomycin] | 2.17 (≈ 0.882 µg/mL) | 4.34 (≈ 1.76 µg/mL) | 2.17 (≈ 0.882 µg/mL) | 4.34 (≈ 1.76 µg/mL) | > 139 | > 139 |  |  | 2.31 | 2.57 | 1.47 | 1.38 |  |  |
| CC[C@H](C)[C@@H]1NC(=O)[C@H](CO)NC(=O)[C@H](CCCCN)NC(=O)[C@@H]2CSSC[C@@H](C(=O)N[C@@H](Cc3ccc(O)cc3)C(=O)O)NC(=O)[C@H](CCCCN)NC(=O)[C@@H]3CSSC[C@H](NC(=O)[C@H](CCC(N)=O)NC(=O)[C@H]([C@@H](C)CC)NC(=O)[C@H](CC(=O)O)NC(=O)[C@H](CC(=O)O)NC(=O)[C@H](CCC(=O)O)NC(=O)[C@H](CO)NC(=O)[C@H](Cc4c[nH]c5ccccc45)NC(=O)[C@@H]4CCCN4C(=O)CNC(=O)[C@H](CC(N)=O)NC(=O)[C@@H](NC(=O)CNC(=O)[C@H](Cc4ccccc4)NC(=O)CN)CSSC[C@H](NC(=O)[C@H](Cc4ccc(O)cc4)NC(=O)CNC(=O)CNC(=O)[C@H](CCCCN)NC(=O)[C@H](Cc4ccc(O)cc4)NC(=O)CNC(=O)[C@H](CCCCN)NC1=O)C(=O)N[C@@H](C)C(=O)N[C@@H](CCCNC(=N)N)C(=O)NCC(=O)NCC(=O)N[C@@H](Cc1ccccc1)C(=O)N[C@@H](C(C)C)C(=O)N3)C(=O)N[C@@H](Cc1c[nH]cn1)C(=O)N[C@@H](CC(N)=O)C(=O)N[C@@H](Cc1c[nH]cn1)C(=O)N2 [NZX] (H-GFGCNGPWSEDDIQCHNHCKSIKGYKGGYCARGGFVCKCY-OH; disulfide 4-30, 15-37, 19-39; N-terminus and C-terminus assumed) |  |  |  |  |  |  | 1.91 to 75.17% | 57.1–75.1% |  |  |  |  | 0.00 to 8.48 | 1.18 |
